Experimental data taken from PubChem BioAssay (NCI).
“And” between values parts separate entries of the source, which are not always exact repeats. Identical values can stand only once.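 Each compound was tested at five concentrations against cells in 96-well plates for 48 hours. At the GI50, growth is halved. TGI: total growth inhibition.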

Experiments:
Assay in all cases: growth of human tumour cells (NCI), 48 h
[1] = test system: BT-549 breast
[2] = test system: HOP-62 NSCLC
[3] = test system: ACHN renal
[4] = test system: OVCAR-5 ovarian
[5] = test system: U251 CNS
[6] = test system: SR leukemia
[7] = test system: OVCAR-4 ovarian
[8] = test system: OVCAR-3 ovarian
[9] = test system: NCI-H460 lung
[10] = test system: IGROV1 ovarian

Row | Structure (SMILES) | GI50 [1] | TGI [1] | GI50 [2] | TGI [2] | GI50 [3] | TGI [3] | GI50 [4] | TGI [4] | TGI [5] | TGI [6] | TGI [7] | TGI [8] | TGI [9] | TGI [10] | GI50 [6] | GI50 [7] | GI50 [8] | GI50 [9] | GI50 [10] | GI50 [5]
1 | Cc1[nH]c(C(=O)Nc2ccc(C(=O)NCCN)cc2OC(C)C)c(Cl)c1Cl | 10.6 µM | 33 µM | 1.95 µM | 4.53 µM | 1.67 µM | 3.07 µM | 1.67 µM | 3.11 µM |  |  |  |  |  |  |  |  |  |  |  | 
2 | c1ccc(/C(=N\Nc2nc3ccccc3[nH]2)c2ccccn2)cc1 |  | 14.5 µM |  | 2.12 µM |  | 2 µM |  | 4.47 µM | > 28.5 µM | > 31.8 µM | 4.99 µM | 2.99 µM | 13.1 µM | 1.31 µM |  |  |  |  |  | 
3 | CC(C)CCN(CCC(C)C)CC(=O)Nc1ccc(S(=O)(=O)c2ccc(NC(=O)CN(CCC(C)C)CCC(C)C)cc2)cc1 | 1.16 µM | 3.36 µM |  |  | 1.94 µM | 4.68 µM | 2.07 µM | 5.46 µM |  | 5.19 µM | 12.7 µM | 3.03 µM | 6.1 µM | 4.5 µM | 1.72 µM | 2.56 µM | 1.41 µM | 2070 nM | 1.64 µM | 
4 | C[N+]1(C(CO)Cc2c[nH]c3ccccc23)Cc2ccccc2C1 (stereo not given) |  | > 100 µM |  | > 100 µM |  | > 100 µM |  | > 100 µM | > 100 µM | > 100 µM | > 100 µM | > 100 µM | > 100 µM | > 100 µM |  |  |  |  |  | 
5 | C[n+]1c2ccccc2c(N=[N+]=[N-])c2ccccc21 |  | > 10 µM |  | > 10 µM |  | > 10 µM |  | > 10 µM | > 10 µM | > 10 µM | > 10 µM | > 10 µM | > 10 µM | > 10 µM |  |  |  |  |  | 
6 | C=C(CN(C)C)C(=O)c1ccccc1OC |  | 31.9 µM |  | > 100 µM |  | 28.2 µM |  | 38.5 µM | 66.3 µM | > 56 µM | 45.9 µM | 32.9 µM | 63.2 µM | 58.1 µM |  |  |  |  |  | 
7 | O=C1OC(c2ccc(O)cc2)(c2ccc(O)cc2)c2ccc(Cl)c3cccc1c23 (tested in a mixture with another compound) |  | 31.7 µM |  | 16.2 µM |  | 39.8 µM |  | 20.8 µM | 25.2 µM | 28.4 µM | 0.325 µM | > 75 µM | 23.7 µM | 33.2 µM |  |  |  |  |  | 
8 | O=C1Nc2cccc(Cl)c2/C1=C\c1cccnc1 |  | 24.4 µM |  | 19.1 µM |  | > 100 µM |  | 16.1 µM | 35.2 µM |  | 31.7 µM | 21.2 µM | 36.5 µM |  |  |  |  |  |  | 
9 | CCCCCCCCCCCCc1ccc(S(=O)(=O)O)cc1.[Cu+2] |  |  |  | > 100 µM |  | > 100 µM |  | > 100 µM | > 100 µM |  | > 100 µM | > 100 µM | > 100 µM | > 100 µM |  |  |  |  |  | 
10 | COc1ccccc1C#C/C=C\C#Cc1ccccc1C#N |  |  |  | 62.5 µM |  | > 100 µM |  | > 100 µM | > 100 µM | 29.9 µM | > 100 µM | 24.5 µM | > 100 µM | 35.8 µM |  |  |  |  |  | 
11 | CC(=O)OC(C(=O)O)C(OC(C)=O)C(OC(C)=O)C(OC(C)=O)C(=O)O (stereo not given) |  | > 100 µM |  | > 100 µM |  |  |  | > 100 µM | > 100 µM | > 100 µM |  | > 100 µM | > 100 µM | > 100 µM |  |  |  |  |  | 
12 | O=C(CSCC(=O)N/N=C\c1ccc(F)cc1F)N/N=C\c1ccc(F)cc1F |  |  |  | > 100 µM |  | > 100 µM |  |  | > 100 µM | > 100 µM | > 100 µM | > 100 µM | > 100 µM | > 100 µM |  |  |  |  |  | 
13 | CC(C)CNC1=NCC(C)S1 (stereo not given) |  | > 100 µM |  | > 100 µM |  | > 100 µM |  | > 100 µM | > 100 µM | > 100 µM |  | > 100 µM | > 100 µM | > 100 µM |  |  |  |  |  | 
14 | COC(=O)c1c(O)ccc2c1c1c(n2CCc2ccc(OC)c(OC)c2)C(=O)c2ccccc2C1=O |  | 27.8 µM |  | 32.9 µM |  | 35.9 µM |  | 34.1 µM | 43.2 µM | 51.3 µM | 35.6 µM | 40.6 µM | 19.5 µM | 29.9 µM |  |  |  |  |  | 
15 | CC[C@@]1(O)CC(OC2CC(N3CCOCC3)C(O)C(C)O2)c2c(O)c3c(c(O)c2[C@H]1O)C(=O)c1cccc(O)c1C3=O (stereo not given in full) |  | 0.349 µM |  | 0.597 µM and 0.427 µM |  | 0.0815 µM | 0.192 µM | 2.17 µM and 0.821 µM | 1.73 µM and 0.348 µM | 25 µM | 1.55 µM and 2.88 µM | 2.73 µM and 1.63 µM | 0.554 µM and 0.113 µM | 2.9 µM and 5.99 µM |  | 0.199 µM | 0.176 µM | 0.052 nM | 0.235 µM | 0.0287 µM
16 | O=C(O)c1cc2ccccc2c(N=Nc2ccc(S(=O)(=O)Nc3ccccn3)cc2)c1O |  | > 100 µM |  | > 100 µM |  | > 100 µM |  | > 100 µM | > 100 µM | > 100 µM | > 100 µM | > 100 µM | > 100 µM | > 100 µM |  |  |  |  |  | 
